How the values were obtained:
[1] = target: T1, microsomal triglyceride transfer protein (MTP) (Mesocricetus auratus, UniProt P55158); assay: Inhibition of MTP activity: transfer of [3H]-triolein from donor liposomes to biotinylated LDL, SPA; type: biochemical; conditions: MTP from golden hamster liver; incubation 18-24 hours at 37° C.; read-out: IC50, concentration that allows a 50% inhibition of MTP
T1 construct: The supernatant comprising the soluble MTP is dialysed against Tris/HCl 150 mM; from tissue; host or cells: golden hamster liver microsomes, deoxycholate-solubilised supernatant, dialysed
T1 sequence (P55158 19-895): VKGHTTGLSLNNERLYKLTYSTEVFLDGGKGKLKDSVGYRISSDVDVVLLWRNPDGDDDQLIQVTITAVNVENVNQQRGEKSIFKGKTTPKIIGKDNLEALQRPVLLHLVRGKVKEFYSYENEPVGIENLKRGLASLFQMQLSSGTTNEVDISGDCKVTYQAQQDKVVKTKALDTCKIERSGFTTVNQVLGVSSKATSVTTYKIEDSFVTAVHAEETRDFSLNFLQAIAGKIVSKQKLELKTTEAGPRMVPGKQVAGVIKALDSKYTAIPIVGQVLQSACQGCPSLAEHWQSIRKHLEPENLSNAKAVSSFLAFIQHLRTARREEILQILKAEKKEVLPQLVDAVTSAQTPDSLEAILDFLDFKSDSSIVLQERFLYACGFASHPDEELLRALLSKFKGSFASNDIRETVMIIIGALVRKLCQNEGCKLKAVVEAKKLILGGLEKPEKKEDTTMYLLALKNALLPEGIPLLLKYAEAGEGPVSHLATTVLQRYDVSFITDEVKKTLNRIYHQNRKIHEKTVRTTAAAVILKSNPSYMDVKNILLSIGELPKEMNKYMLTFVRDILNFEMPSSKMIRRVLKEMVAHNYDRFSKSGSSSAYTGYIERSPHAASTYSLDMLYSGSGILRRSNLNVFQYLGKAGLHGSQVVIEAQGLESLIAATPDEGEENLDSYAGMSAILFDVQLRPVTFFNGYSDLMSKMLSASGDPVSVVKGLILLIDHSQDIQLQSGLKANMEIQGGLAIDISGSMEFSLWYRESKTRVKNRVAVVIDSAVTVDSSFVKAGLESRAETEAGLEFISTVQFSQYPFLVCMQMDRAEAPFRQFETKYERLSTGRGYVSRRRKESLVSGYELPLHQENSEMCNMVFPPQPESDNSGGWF
How it was run: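 Soluble MTP was extracted with deoxycholate from golden hamster liver microsomes. It was incubated with [3H]-triolein/phosphatidylcholine donor liposomes, biotinylated LDL acceptors and compound in DMSO in HEPES/NaCl/BSA buffer, pH 7.4, for 18-24 h at 37° C. Transfer was read with streptavidin SPA beads, and IC50 was taken as 50% inhibition of transfer.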

[2] = test system: apo B secretion in HepG2 cells; assay: Secretion of apo B in the HepG2 human cell line (sandwich-ELISA); type: cell-based; conditions: 24 hours incubation, culture supernatant, read-out: IC50, concentration that produces a 50% inhibition of apo B secretion in the HepG2 cells
Protocol: Analysis of the Secretion of apo B in the HepG2 Human Cell Line:
The activity of a compound according to the invention can be evaluated by measuring the inhibition of apo B secretion in HepG2 cells.
The HepG2 cells (ECACC—No. 85011430) are used as model in the study of the in vitro hepatic secretion of lipoproteins (Dixon J. and Ginsberg H., J., Lipid. Res., 1993, 34, 167-179).
The HepG2 cells are cultured in Dulbecco's modified Eagle's medium comprising 10% foetal calf serum (DMEM and FBS—Gibco) in 96-well plates under an atmosphere of 5% carbon dioxide for 24 hours (about 70% confluence).
The test compounds are dissolved at a concentration of 2 or 10 mM in dimethyl sulfoxide (DMSO). Serial dilutions (1:3.16) are made in DMSO and are added (1:200—Robot Multimek Beckman) to the growth medium (200 μL) and then finally incubated for 24 hours in the various wells containing the HepG2 cells.
The 24-hour culture supernatant diluted to 1:5 (phosphate-buffered saline:PBS comprising 1% bovine serum albumin) is tested according to a sandwich-ELISA method specific for human apo B.
The results are expressed in terms of IC50, i.e. the concentration that produces a 50% inhibition of apo B secretion in the HepG2 cells.

| SMILES | IC50 [1] | IC50 [2] |
| --- | --- | --- |
| CCNC(=O)N1CCC(Oc2cccc(NC(=O)c3cccc(C)c3-c3ccc(OC(F)(F)F)cc3)c2)CC1 [Example 12, N-ethyl-4-[3-[[[6-methyl-4′-(trifluoro-methoxy)[1,1′-biphenyl]-2-yl]carbonyl]-amino]phenoxy]-1-piperidinecarboxamide] | 86.9 nM | 53 nM |
| Cc1cccc(C(=O)Nc2cccc(OC3CCN(C(=O)OCc4ccccc4)CC3)c2)c1-c1ccc(OC(F)(F)F)cc1 [Example 7, phenylmethyl 4-[3-[[[6-methyl-4′-(trifluoro-methoxy)[1,1′-biphenyl]-2-yl]carbonyl]-amino]phenoxy]-1-piperidinecarboxylate] | 45.2 nM | 17 nM |
| CC(=O)OCC(=O)N1CCC(Oc2cccc(NC(=O)c3cccc(C)c3-c3ccc(OC(F)(F)F)cc3)c2)CC1 [Example 102, N-[3-[[1-[2-(acetyloxy)acetyl]-4-piperidin-yl]oxy]phenyl]-6-methyl-4′-(trifluorometh-oxy)[1,1′-biphenyl]-2-carboxamide] | 213 nM | 25.7 nM |
| CCCCCCNC(=O)N1CCC(Oc2cccc(NC(=O)c3cccc(C)c3-c3ccc(OC(F)(F)F)cc3)c2)CC1 [Example 41, N-hexyl-4-[3-[[[6-methyl-4′-(trifluorometh-oxy)[1,1′-biphenyl]-2-yl]carbonyl]amino]-phenoxy]-1-piperidinecarboxamide] | 45.5 nM | 33.1 nM |
| COc1ccc(C(=O)N2CCC(Oc3cccc(NC(=O)c4cccc(C)c4-c4ccc(OC(F)(F)F)cc4)c3)CC2)cc1 [Example 98, N-[3-[[1-(4-methoxybenzoyl)-4-piperidin-yl]oxy]phenyl]-6-methyl-4′-(trifluorometh-oxy)[1,1′-biphenyl]-2-carboxamide] | 101 nM | 67.1 nM |
| Cc1cccc(C(=O)Nc2cccc(OC3CCN(S(C)(=O)=O)CC3)c2)c1-c1ccc(OC(F)(F)F)cc1 [Example 3, 6-methyl-N-[3-[[1-(methylsulfonyl)-4-piperidinyl]oxy]phenyl]-4′-(trifluoro-methoxy)[1,1′-biphenyl]-2-carboxamide] | 49.2 nM | 10.6 nM |
| COc1ccc(CNC(=O)N2CCC(Oc3cccc(NC(=O)c4cccc(C)c4-c4ccc(OC(F)(F)F)cc4)c3)CC2)cc1 [Example 52, N-[(4-methoxyphenyl)methyl]-4-[3-[[[6-methyl-4′-(trifluoromethoxy)[1,1′-biphenyl]-2-yl]carbonyl]amino]phenoxy]-1-piperidinecarboxamide] | 195 nM | 66.3 nM |
| C/C=C/C(=O)N1CCC(Oc2cccc(NC(=O)c3cccc(C)c3-c3ccc(OC(F)(F)F)cc3)c2)CC1 [Example 128, 6-methyl-N-[3-[[1-[(2E)-1-oxo-2-butenyl]-4-piperidinyl]oxy]phenyl]-4′-(trifluorometh-oxy)[1,1′-biphenyl]-2-carboxamide] | 100 nM | 22.2 nM |
| COc1ccc(CC(=O)N2CCC(Oc3cccc(NC(=O)c4cccc(C)c4-c4ccc(OC(F)(F)F)cc4)c3)CC2)cc1 [Example 101, N-[3-[[1-[2-(4-methoxyphenyl)acetyl]-4-piperidinyl]oxy]phenyl]-6-methyl-4′-(trifluoromethoxy)[1,1′-biphenyl]-2-carboxamide] | 160 nM | 92.6 nM |
| CCCCOC(=O)CNC(=O)N1CCC(Oc2cccc(NC(=O)c3cccc(C)c3-c3ccc(OC(F)(F)F)cc3)c2)CC1 [Example 44, butyl N-[[4-[3-[[[6-methyl-4′-(trifluorometh-oxy)[1,1′-biphenyl]-2-yl]carbonyl]amino]-phenoxy]-1-piperidinyl]carbonyl]glycinate] | 171 nM | 7.4 nM |
| Cc1cccc(C(=O)Nc2cccc(OC3CCN(C(=O)Nc4ccc5c(c4)OCO5)CC3)c2)c1-c1ccc(OC(F)(F)F)cc1 [Example 56, N-1,3-benzodioxol-5-yl-4-[3-[[[6-methyl-4′-(trifluoromethoxy)[1,1′-biphenyl]-2-yl]-carbonyl]amino]phenoxy]-1-piperidine-carboxamide] | 146 nM | 37.6 nM |
| Cc1cccc(C(=O)Nc2cccc(OC3CCN(S(=O)(=O)c4ccccc4)CC3)c2)c1-c1ccc(OC(F)(F)F)cc1 [Example 15, 6-methyl-N-[3-[[1-(phenylsulfonyl)-4-piperidinyl]oxy]phenyl]-4′-(trifluoro-methoxy)[1,1′-biphenyl]-2-carboxamide] | 55.6 nM | 28.2 nM |
| COc1ccc(NC(=O)N2CCC(Oc3cccc(NC(=O)c4cccc(C)c4-c4ccc(OC(F)(F)F)cc4)c3)CC2)cc1 [Example 26] | 72.8 nM | 75.8 nM |
| Cc1cccc(C(=O)Nc2cccc(OC3CCN(C(=O)OCC(C)C)CC3)c2)c1-c1ccc(OC(F)(F)F)cc1 [Example 8, 2-methylpropyl 4-[3-[[[6-methyl-4′-(trifluoromethoxy)[1,1-biphenyl]-2-yl]carbonyl]amino]phenoxy]-1-piperidine-carboxylate] | 55.5 nM | 25.2 nM |
| CSC(=O)N1CCC(Oc2cccc(NC(=O)c3cccc(C)c3-c3ccc(OC(F)(F)F)cc3)c2)CC1 [Example 10] | 39.2 nM | 12.2 nM |
| Cc1cccc(C(=O)Nc2cccc(OC3CCN(C(=O)NCCc4ccccc4)CC3)c2)c1-c1ccc(OC(F)(F)F)cc1 [Example 40, 4-[3-[[[6-methyl-4′-(trifiuoromethoxy)[1,1′-biphenyl]-2-yl]carbonyl]amino]phenoxy]-N-(2-phenylethyl)-1-piperidinecarbox-amide] | 69.1 nM | 13.7 nM |
| Cc1cccc(C(=O)Nc2cccc(OC3CCN(S(=O)(=O)Cc4ccccc4)CC3)c2)c1-c1ccc(OC(F)(F)F)cc1 [Example 16] | 42.5 nM | 15.9 nM |
| COC(=O)c1ccc(NC(=O)N2CCC(Oc3cccc(NC(=O)c4cccc(C)c4-c4ccc(OC(F)(F)F)cc4)c3)CC2)cc1 [Example 55, methyl 4-[[[4-[3-[[[6-methyl-4′-(trifluoro-methoxy)[1,1′-biphenyl]-2-yl]carbonyl]-amino]phenoxy]-1-piperidinyl]carbonyl]-amino]benzoate] | 208 nM | 46.6 nM |
| Cc1cccc(C(=O)Nc2cccc(OC3CCN(C(=O)C(C)C)CC3)c2)c1-c1ccc(OC(F)(F)F)cc1 [Example 142, 6-methyl-N-[3-[[1-(2-methyl-1-oxopropyl)-4-piperidinyl]oxy]phenyl]-4′-(trifluorometh-oxy)[1,1′-biphenyl]-2-carboxamide] | 166 nM | 72.8 nM |
| COCCOC(=O)N1CCC(Oc2cccc(NC(=O)c3ccccc3-c3ccc(OC(F)(F)F)cc3)c2)CC1 [Example 74] | 110 nM | 83 nM |
| COC(=O)N1CCC(Oc2cccc(NC(=O)c3cccc(C)c3-c3ccc(OC(F)(F)F)cc3)c2)CC1 [Example 5, methyl 4-[3-[[[6-methyl-4′-(trifluoro-methoxy)[1,1′-biphenyl]-2-yl]carbonyl]-amino]phenoxy]-1-piperidinecarboxylate] | 45.1 nM | 0.8 nM |
| Cc1cccc(C(=O)Nc2cccc(OC3CCN(C(=O)c4ccno4)CC3)c2)c1-c1ccc(OC(F)(F)F)cc1 [Example 100, N-[3-[[1-(5-isoxazolylcarbonyl)-4-piperi-dinyl]oxy]phenyl]-6-methyl-4′-(trifluoro-methoxy)[1,1′-biphenyl]-2-carboxamide] | 139 nM | 54.1 nM |
| CCCCS(=O)(=O)N1CCC(Oc2cccc(NC(=O)c3cccc(C)c3-c3ccc(OC(F)(F)F)cc3)c2)CC1 [Example 22] | 45 nM | 12.7 nM |

Source: patent US7723358B2, “Aroyl-O-piperidine derivatives for the treatment of diabetes-related problems” (Merck Patent GmbH, priority 2004, dated 2010)
